According to US20200341000A1, “METHOD OF SCREENING COMPOUNDS FOR TREATING CNS DISORDERS” (SAGE THERAPEUTICS, INC., priority 2017, published 2020):
“Also recorded” adds a separate entry of the source.

Columns and labels:
[1] = system: phosphorylation of S443 (α4) and S408/9 (β3); test: Phosphorylation of GABAAR subunits in brain after IP injection; assay type: in vivo, mice; settings: 5 mg/kg IP, 30 min after treatment
Protocol: C57/B16 mice injected with SGE-516 (5 mg/kg IP), or vehicle. 30 min after the treatment mice were sacrificed by microwave irradiation. SDS-soluble hippocampal extracts were then immunoblotted with pS443, α4, pS408/9, or β3 subunit antibodies.

[2] = system: tonic current in dentate gyms granule cells (DGGCs); test: Sustained (metabotropic) enhancement of tonic current in DGGCs after 15 min exposure and washout; assay type: cell-based, mice; settings: for tonic current after exposure and washout: 1 μM, vehicle 43.9±5.7 pA; for change of tonic current after exposure to different concentrations: maximal effects at 1 μM; for tonic current versus vehicle with PKC inhibitor GFX: GFX 50 μM 15 min, then co-exposure with compound 15 min, washout
Protocol: Brain slices were prepared from 3- to 5-week-old male C57 mice. Mice were anesthetized with isoflurane, decapitated, and brains were rapidly removed and submerged in ice-cold cutting solution containing (mM): 126 NaCl, 2.5 KCl, 0.5 CaCl2, 2 MgCl2, 26 NaHCO3, 1.25 NaH2PO4, 10 glucose, 1.5 sodium pyruvate, and 3 kynurenic acid. Coronal 310 μm thick slices were cut with the vibratome VT1000S (Leica Microsystems, St Louis, Mo., USA). The slices were then transferred into incubation chamber filled with prewarmed (31-32° C.) oxygenated artificial cerebro-spinal fluid (ACSF) of the following composition (in mM): 126 NaCl, 2.5 KCl, 2 CaCl2, 2 MgCl2, 26 NaHCO3, 1.25 NaH2PO4, 10 glucose, 1.5 sodium pyruvate, 1 glutamine, 3 kynurenic acid and 0.005 GABA bubbled with 95% O2-5% CO2. Slices were allowed to recover at 32° C. for at least 1 hr before recording. Exogenous GABA was added in an attempt to standardize ambient GABA in the slice and provide an agonist source for newly inserted extrasynaptic GABAARs.
After recovery, a single slice was transferred to a submerged, dual perfusion recording chamber (Warner Instruments, Hamden, Conn., USA) on the stage of an upright microscope (Nikon FN-1) with a 40× water immersion objective equipped with DIC/IR optics. Slices were maintained at 32° C. and gravity-superfused with ACSF solution throughout experimentation and perfused at rate of 2 ml/min with oxygenated (O2/CO2 95/5%) ACSF.
Whole-cell currents were recorded from the dentate gyms granule cells (DGGCs) in 310-μm-thick coronal hippocampal slices. Patch pipettes (5-7MΩ) were pulled from borosilicate glass (World Precision Instruments) and filled with intracellular solution of the composition (in mM) as follows: 140 CsCl, 1 MgCl2, 0.1 EGTA, 10 HEPES, 2 Mg-ATP, 4 NaCl and 0.3 Na-GTP (pH=7.2 with CsOH). A 5 min period for stabilization after obtaining the whole-cell recording conformation (holding potential of −60 mV) was allowed before currents were recorded using an Axopatch 200B amplifier (Molecular Devices), low-pass filtered at 2 kHz, digitized at 20 kHz (Digidata 1440A; Molecular Devices), and stored for offline analysis.
For tonic current measurements, an all-points histogram was plotted for a 10 s period before and during 100 μM picrotoxin application, once the response reached a plateau level. Recordings with unstable baselines were discarded. Fitting the histogram with a Gaussian distribution gave the mean baseline current amplitude and the difference between the amplitudes before and during picrotoxin was considered to be the tonic current. The negative section of the all-points histogram which corresponds to the inward IPSCs was not fitted with a Gaussian distribution (Kretschmannova et al., 2013; Nusser and Mody, 2002). Series resistance and whole-cell capacitance were continually monitored and compensated throughout the course of the experiment. Recordings were eliminated from data analysis if series resistance increased by >20%. Spontaneous inhibitory post-synaptic currents (sIPSCs) were analyzed using the mini-analysis software (version 5.6.4; Synaptosoft, Decatur, Ga.). Minimum threshold detection was set to 3 times the value of baseline noise signal. To assess sIPSC kinetics, the recording trace was visually inspected and only events with a stable baseline, sharp rising phase, and single peak were used to negate artifacts due to event summation. Only recordings with a minimum of 200 events fitting these criteria were analyzed. sIPSCs amplitude, and frequency from each experimental condition was pooled and expressed as mean±SEM. To measure sIPSC decay, 100 consecutive events were averaged and the decay was fitted to a double exponential and the weighted decay constant (tw) was determined. Statistical analysis was performed by using Student t-test (paired and unpaired where appropriate), where p<0.05 is considered significant.

[3] = system: GABAA receptor α4 subunit S443 phosphorylation; test: Immunoblot of α4 S443 phosphorylation in hippocampal slices; assay type: cell-based, mice; settings: 100 SGE-516 for 5 min
Protocol: Treatment of hippocampal slices with SGE-516 increased the phosphorylation of S408/9 measured using pS408/9 antibodies. To produce antibodies specific for phosphorylated S443, rabbits were injected with a synthetic peptide corresponding to residues […] of the murine α4 subunit in which the serine residue corresponding to S443 was chemically phosphorylated; […]. Hippocampal slices were treated with vehicle (Con), or SGE-516 for 20 min. Slices were immunoblotted with pS408/9, β3, or actin antibodies. The ratio of pS408/9/β3 immunoreactivity was then normalized to control slices (100%=the line).
Affinity purified pS443 was used to immunoblot varying concentrations of the immunizing phosphor-peptide (PP). pS443 was used to immunoblot extracts of hippocampal slices treated without preadsorption (0), preadsorbed with the dephosphorylated (DP), or phosphorylated antigen (PP). […] Moreover, the detection of this band was blocked by the phospho- but not the dephospho-antigen (FIG. 7B).
Hippocampal slices were treated with vehicle (Con) or 100 SGE-516 for 5 min and then immunoblotted with pS443 and α4 antibodies as indicated. pS443 immunoreactivity in hippocampal slices was increased by exposure to SGE-516, while total α4 levels were unaffected (FIG. 7C).

[4] = system: GT1-7 cells (co-express mPRα and GABAARs), β3 S408/9 phosphorylation; test: Immunoblot of β3 S408/9 phosphorylation in GT1-7 cells; assay type: cell-based; settings: 100 nM, 15 min; n=6
Protocol: GT1-7 cells that co-express mPRα and GABAARs were used to measure the level of phosphorylation at S408/9 position of β3 subunit. Quantitative PCR analysis indicated the enrichment of the mPRα mRNA in GT1-7 cells (FIG. 15A upper, figure taken from Thomas and Pang 2012). Expression of mPRα was confirmed using western blotting. 10 and 15 μg of SDS-soluble extracts from GT1-7 cells were immunoblotted with an mPRα specific antibody (FIG. 15A lower).
GT1-7 cells were treated with 100 nM AllO or P4 for 15 min and immunoblotted with antibodies specifically recognizing β3, actin, and […] β3 subunit (pS408/9). The ratio of pS408/9 β3 subunit immunoreactivity were then normalized to levels seen in vehicle treated to controls, n=6.

[5] = system: sIPSCs in DGGCs (mutant mice); test: Decay time of sIPSCs in DGGCs of mutant mice; assay type: cell-based; settings: 100 nM
Protocol: The ability of 100 nM ALLO to modulate the decay time of sIPSCs was compared in DGGCs from WT and S940A mice as detailed in FIG. 2.

[6] = 15 min incubation, 30-60 min wash

Structure (SMILES) | phosphorylation of S443 and S408/9 in the brains [1] | tonic current in DGGCs after incubation and extensive washout ([2]; 100 nM, WT slices) | tonic current after exposure and washout [2, 6] [pA] | change of tonic current after exposure to different concentrations [2, 6] | tonic current versus vehicle with PKC inhibitor GFX [2] | pS443 immunoreactivity [3] | total α4 levels [3] | S408/9 phosphorylation (pS408/9/β3) in GT1-7 cells [4] | decay time of sIPSCs [5] | increase in tonic current in the absence or presence of strychnine ([2]; 100 nM ALLO 15 min, strychnine 100 nM) | change of tonic current versus vehicle ([2]; 100 nM, 15 min incubation, 30-60 min wash)
C[C@@]1(O)CC[C@H]2[C@H](CC[C@@H]3[C@@H]2CC[C@]2(C)[C@@H](C(=O)Cn4nccn4)CC[C@@H]32)C1 [SGE-516] | increased | significant increased | 123.0±22.2 | concentration-dependent increase; also recorded: significantly enhanced | no significant difference; also recorded: No change | increased | unaffected | – | – | – | –
CC(=O)[C@H]1CC[C@H]2[C@@H]3CC[C@H]4C[C@H](O)CC[C@]4(C)[C@H]3CC[C@]12C [ALLO, Allopregnanolone] | – | – | 95.8±10.8 | concentration-dependent increase; also recorded: significantly enhanced | no significant difference; also recorded: No change | – | – | increase | did not increase | no difference | significant increase
